Experimental data reported in patent publication EP2818472A1, “Imidazo[4,5-c]pyridine and pyrrolo[3,2-c]pyridine compounds as G-protein-coupled receptor kinase 5 (GRK5) modulators” (Max-Planck-Gesellschaft zur Förderung der Wissenschaften …, priority 2013, dated 2014).

Tested on: beta-TC6 cells
Assay: Insulin HTRF assay (relative activity Ar) in beta-TC6 cells
Type: cell-based, mouse
Conditions: Mus musculus, Beta-TC6, 4 h, insulin HTRF, supernatant of beta-TC6 cells, incubation with test compound at 37°C for 2, 3, 4h; read-out: Ar (relative activity)
Procedure, shortened: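 beta-TC6 cells (15k/well, seeded 24 or 48 h) washed, then exposed to compound in induction buffer (0.5% DMSO final) for 2, 3 or 4 h at 37°C.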

Compound	Emax [%]
COCc1nc2cnc(Nc3cc(OC)c(OC)c(OC)c3)cc2n1C [Compound 745, 2-(methoxymethyl)-1-methyl-N-(3,4,5-trimethoxyphenyl)imidazo[4,5-c]pyridin-6-amine]	30 to 50
CC(=O)c1cccc(-c2cc3c(cn2)nc(NCc2ccccc2F)n3C)c1 [Compound 747, 1-[3-[2-[(2-fluorophenyl)methylamino]-1-methyl-imidazo[4,5-c]pyridin-6-yl]phenyl]ethanone]	0 to 30
Cn1c(NCc2ccccc2)nc2cnc(-c3cccc(C(=O)O)c3)cc21 [Compound 748, 3-[2-(benzylamino)-1-methyl-imidazo[4,5-c]pyridin-6-yl]benzoic acid]	0 to 30
CNc1nc2cnc(Nc3ccc(Oc4ccccc4)cc3)cc2n1C [Compound 749, N2,1-dimethyl-N6-(4-phenoxyphenyl)imidazo[4,5-c]pyridine-2,6-diamine]	0 to 30
Cn1c(NCC2CC2)nc2cnc(Nc3cccc(Oc4ccccc4)c3)cc21 [Compound 750, N2-(cyclopropylmethyl)-1-methyl-N6-(3-phenoxyphenyl)imidazo[4,5-c]pyridine-2,6-diamine]	0 to 30
COCCNc1nc2cnc(-c3ccc(OC)nc3)cc2n1C [Compound 751, N-(2-methoxyethyl)-6-(6-methoxy-3-pyridyl)-1-methyl-imidazo[4,5-c]pyridin-2-amine]	0 to 30
FC(F)(F)c1cccc(-c2cc3c(cn2)ncn3-c2ccccc2)c1 [Compound 752, 1-phenyl-6-[3-(trifluoromethyl)phenyl]imidazo[4,5-c]pyridine]	0 to 30
CNc1nc2cnc(Nc3ccc(F)c(Cl)c3)cc2n1-c1cc(OC)c(OC)c(OC)c1 [Compound 753, N6-(3-chloro-4-fluoro-phenyl)-N2-methyl-1-(3,4,5-trimethoxyphenyl)imidazo[4,5-c]pyridine-2,6-diamine]	0 to 30
COc1cccc(-c2cc3c(cn2)ncn3Cc2ccc(OC)c(OC)c2)c1 [Compound 754, 1-[(3,4-dimethoxyphenyl)methyl]-6-(3-methoxyphenyl)imidazo[4,5-c]pyridine]	0 to 30
Cn1c(NCC2CCCO2)nc2cnc(Nc3cccc(OC(F)(F)F)c3)cc21 (centres unmarked) [Compound 755, 1-methyl-N2-(tetrahydrofuran-2-ylmethyl)-N6-[3-(trifluoromethoxy)phenyl]imidazo[4,5-c]pyridine-2,6-diamine]	0 to 30
Cn1c(-c2ccco2)nc2cnc(-c3cccc(OC(F)(F)F)c3)cc21 [Compound 756, 2-(2-furyl)-1-methyl-6-[3-(trifluoromethoxy)phenyl]imidazo[4,5-c]pyridine]	0 to 30
Cn1c(NCC2CC2)nc2cnc(-c3cccc(Oc4ccccc4)c3)cc21 [Compound 758, N-(cyclopropylmethyl)-1-methyl-6-(3-phenoxyphenyl)imidazo[4,5-c]pyridin-2-amine]	0 to 30
COCCNc1nc2cnc(-c3ccc4c(c3)OCO4)cc2n1C [Compound 759, 6-(1,3-benzodioxol-5-yl)-N-(2-methoxyethyl)-1-methyl-imidazo[4,5-c]pyridin-2-amine]	0 to 30
CNc1nc2cnc(Nc3ccc(OC)cc3C)cc2n1CC1CC1 [Compound 760, 1-(cyclopropylmethyl)-N6-(4-methoxy-2-methyl-phenyl)-N2-methyl-imidazo[4,5-c]pyridine-2,6-diamine]	0 to 30
CC(=O)Nc1ccc(-c2cc3c(cn2)ncn3-c2cccc(F)c2)cc1 [Compound 761, N-[4-[1-(3-fluorophenyl)imidazo[4,5-c]pyridin-6-yl]phenyl]acetamide]	0 to 30
CNc1nc2cnc(-c3cccc(OC(F)(F)F)c3)cc2n1Cc1ccccc1 [Compound 762, 1-benzyl-N-methyl-6-[3-(trifluoromethoxy)phenyl]imidazo[4,5-c]pyridin-2-amine]	0 to 30
Cn1c(NCC2CC2)nc2cnc(Nc3ccc(C(F)(F)F)cc3)cc21 [Compound 763, N2-(cyclopropylmethyl)-1-methyl-N6-[4-(trifluoromethyl)phenyl]imidazo[4,5-c]pyridine-2,6-diamine]	0 to 30
